The target in test [1] is T1, nuclear factor-kappa B (NF-kB)-inducing kinase (NIK) (Homo sapiens, UniProt Q99558).
T1 construct: made in house; host or cells: baculovirus-infected insect cells
The experiment in a line: NIK Enzyme Inhibition Assay (Transcreener ADP assay). The class given is biochemical. The settings on record: purified NIK 0.2-1 nM, 10 uM ATP, fluorescence polarization, Morrison's quadratic equation; read-out: inhibitory value (Ki) for NIK.

Test [2] has as its system NF-kB signaling through NIK in human embryonic kidney 293 cells. The experiment in a line: 293-NIK NF-kB-Luciferase reporter assay. In kind it is cell-based. Particulars: HEK293, 293 cells with tetracycline-inducible NIK, 1 ug/mL doxycycline, 24 hours, read-out: inhibitory value (IC50) for 293-NIK NF-kB-Luciferase activity. From the text: (1) The first assay was used to profile whether a test compound can inhibit the NF-kB signally through NIK inhibition without affecting cell viability. In this assay, human embryonic kidney 293 cells was stably transfected with a tetracycline-inducible NIK DNA construct containing a cytomegalovirus promoter plus two reporter DNA constructs. One reporter encoded firefly luciferase under the control of three repeats of an NF-kB response element from the ELAM-1 gene and reflects the level of NIK activity in the cells, whereas the other reporter constitutively expressed Renilla luciferase under the control of the herpes simplex virus thymidine kinase promoter and served as a general measure of cell viability. Cells were incubated with different concentrations of compounds (0.2% DMSO final) in medium containing 1 ug/mL doxycycline and 10% tet-system approved fetal bovine serum (Clontech) for 24 hours, after which the reporters' signals were detected using the Dual Glo luciferase detection system (Promega) according to the vendor's protocol. The compounds listed in Table 1 have the corresponding inhibitory value (IC50 in micromolar) for 293-NIK NF-kB-Luciferase activity (values for compounds are presented in the same order as found in Table 1): na, 0.059, na, na, na, 0.105, 0.027, na, 20, 1.2, na, 1.8, 0.0231, 0.879, 0.0361, 0.582, na, 0.142, na, 0.403, 0.059, 0.0331, na, na, 0.0573, 1.5, na, na, 0.0722, na, na, 0.589, 12.7, 3.7, 14.9, na, 0.707, 1, 0.0311, 0.332, 0.309, 0.0142, 0.051, 2.8, 0.129, na, na, 1.5, na, na, na, 1.3, 0.062, 20, 0.31, 0.104, 0.091, 0.037, 0.085, 0.279, na, 0.305, 0.064, 0.332, 0.133, 0.168, 0.217, 0.553, na and na.

Test [3] concerns p52 (NF-kB2) nuclear translocation in HeLa cells. The experiment in a line: NIK p52 Translocation Assay (non-classical NF-kB signaling). Particulars: Homo sapiens; HeLa cells, 100 ng/mL anti-lymphotoxin beta receptor antibody, 5 hours; read-out: inhibitory value (IC50) for NIK p52 Translocation Assay. In kind it is cell-based. Here is the method:
(§1) (2) A second set of cell assay was used to define the selectivity of NIK inhibitors toward inhibition of classical vs. non-classical NF-kB signaling and rely on quantification of the nuclear translocation of p52 (NF-kB2) and REL-A (p65) using high content cellular imaging. For the p52 (non-classical NF-kB signaling) nuclear translocation assay, HeLa cells were treated with different concentrations of compounds (0.2% DMSO final) in medium containing 10% fetal bovine serum and then stimulated with 100 ng/mL of an anti-lymphotoxin beta receptor antibody (R&D Systems) for 5 hours. In the REL-A nuclear translocation assay, HeLa cells were incubated with compounds (0.2% DMSO final) for 4.5 hours in medium containing 10% fetal bovine serum before stimulating them with 10 ng/mL tumor necrosis factor (TNF)-α (R&D Systems) for 30 minutes. Cells were fixed with 4% paraformaldehyde, permeabilized by adding 0.1% Triton X-100 in phosphate buffered saline, and then incubated with either 2 ug/mL anti-p52 antibody (Millipore) or 400 ng/mL anti-REL-A (p65) antibody (Santa Cruz Biotechnology). Finally, the cells were incubated with an Alexa488-labeled secondary antibody (Invitrogen) and DRAQ5 DNA stain (Biostatus). Imaging was carried out using an Opera reader (Perkin Elmer) and data are analyzed with the aid of Acapella software (Perkin Elmer). The p52 or REL-A translocation into the nucleus was quantified by the ratio of the nuclear to cytoplasmic signal intensity. The concentration of inhibitor required for 50% inhibition (IC50 values) in these cell assays were derived from the plots of signal vs. inhibitor concentration. The compounds in listed in Table 1 have the corresponding inhibitory value (IC50 in micromolar) for NIK p52 Translocation Assay (values for compounds are presented in the same order as found in Table 1, and “na” means the data for this assay is to be determined): 0.326, 0.33, na, na, na, 0.218, 0.07, na, na, na, 0.129, 7.6, 0.077, 3.4, na, 0.518, na, 0.059, 0.514, 0.127, na, na, 0.010, na, na, 0.313, 0.275, na, 0.0727, na, na, na, na, na, na, 0.194, na, 6.4, 0.22, 0.346, na, na, na and na, na, na, na, na, na, 0.447, na, 0.089, 0.479, 0.489, 0.243, 0.747, 1, na, 1.9, 0.552, 2.1, na. na, na, na, na and na.

Test [4] has as its system REL-A (p65) nuclear translocation in HeLa cells. Kind of test: NIK RelA Translocation Assay (classical NF-kB signaling). Particulars: Homo sapiens; HeLa cells, compounds 4.5 hours, 10 ng/mL TNF-α 30 minutes; read-out: inhibitory value (IC50) for NIK RelA Translocation Assay. In kind it is cell-based. As for the experimental part: as §1
The compounds in listed in Table 1 has the corresponding inhibitory value (IC50 in micromolar) for NIK RelA Translocation Assay (values for compounds are presented in the same order as found in Table 1): 0.326, 0.33, na, na, na, 0.218, 0.07, na, na, na, na, na, 0.129, 7.6, 0.077, 3.4, na, 0.518, na, 0.059, 0.514, 0.127, na, na, 0.010, na, na, 0.313, 0.275, na, na, 0.0727, na, na, na, na, na, na, 0.194, na, 6.4, 0.22, 0.346, na, na, na, na, na, na, na, na, na, 0.447, na, 0.089, 0.479, 0.489, 0.243, 0.747, 1, na, 1.9, 0.552, 2.1, na, na, na, na, na and na.

These results are taken from patent US8901313B2, “6,5-heterocyclic propargylic alcohol compounds and uses therefor” (Genentech, Inc., priority 2011, dated 2014).

T1 sequence (Q99558 whole entry): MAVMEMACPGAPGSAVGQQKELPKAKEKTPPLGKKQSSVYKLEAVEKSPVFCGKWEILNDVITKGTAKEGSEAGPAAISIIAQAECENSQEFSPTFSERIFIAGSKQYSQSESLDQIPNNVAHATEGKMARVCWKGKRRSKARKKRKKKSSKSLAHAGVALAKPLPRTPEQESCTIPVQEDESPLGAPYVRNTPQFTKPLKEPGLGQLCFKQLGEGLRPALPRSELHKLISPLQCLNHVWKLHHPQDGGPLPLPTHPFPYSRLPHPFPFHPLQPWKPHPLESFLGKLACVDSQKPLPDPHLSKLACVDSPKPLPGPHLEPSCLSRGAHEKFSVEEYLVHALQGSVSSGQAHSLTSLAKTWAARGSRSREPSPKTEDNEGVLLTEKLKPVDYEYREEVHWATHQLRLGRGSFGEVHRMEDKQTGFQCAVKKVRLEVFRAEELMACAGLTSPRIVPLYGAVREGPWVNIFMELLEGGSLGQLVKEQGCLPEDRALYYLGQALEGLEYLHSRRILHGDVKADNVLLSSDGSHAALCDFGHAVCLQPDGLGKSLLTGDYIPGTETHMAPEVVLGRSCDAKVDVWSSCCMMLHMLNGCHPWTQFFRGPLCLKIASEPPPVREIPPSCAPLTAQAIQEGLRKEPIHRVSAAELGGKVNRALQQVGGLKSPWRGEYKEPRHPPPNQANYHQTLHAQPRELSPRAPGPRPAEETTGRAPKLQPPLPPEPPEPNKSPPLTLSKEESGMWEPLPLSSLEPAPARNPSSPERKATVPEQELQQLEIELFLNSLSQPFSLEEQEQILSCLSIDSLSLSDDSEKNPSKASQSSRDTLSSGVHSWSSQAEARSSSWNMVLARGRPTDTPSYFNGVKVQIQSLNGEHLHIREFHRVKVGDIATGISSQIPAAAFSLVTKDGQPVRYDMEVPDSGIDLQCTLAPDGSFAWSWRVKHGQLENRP

As to `CC(C)(O)C#Cc1ccc2[nH]c(=O)n(-c3ccnc(N)n3)c2c1` [Example T1-20, 1-(2-aminopyrimidin-4-yl)-6-(3-hydroxy-3-methylbut-1-ynyl)-1H-benzo[d]imidazol-2(3H)-one], in test [1], the inhibition constant Ki worked out at 49 nM. Further, the IC50 in test [2] is 403 nM; in test [3], 127 nM; in test [4] it was 59 nM.
Take `Cc1cc(C(C)(O)C#Cc2ccc3ncn(-c4ccnc(N)n4)c3c2)on1` (centres unmarked) [Example T1-41, 4-(1-(2-aminopyrimidin-4-yl)-1H-benzo[d]imidazol-6-yl)-2-(3-methylisoxazol-5-yl) but-3-yn-2-ol]: in test [1], the Ki amounted to 8.5 nM. For the same compound, the IC50 was 309 nM in test [2] and 6400 nM in test [4].
As to `CN(C)Cc1nn(-c2ccnc(N)n2)c2cc(C#CC(C)(C)O)ccc12` [Example T1-25, 4-(1-(2-aminopyrimidin-4-yl)-3-((dimethylamino)methyl)-1H-indazol-6-yl)-2-methylbut-3-yn-2-ol], the Ki in test [1] came to 12 nM. Also, the IC50 in test [2] is 57.3 nM; in test [4], 10 nM.
Turning to `Cc1cc(C(C)(O)C#Cc2ccc3ncn(-c4ccnc(N)n4)c3c2)no1` (centres unmarked) [Example T1-28, 4-(1-(2-aminopyrimidin-4-yl)-1H-benzo[d]imidazol-6-yl)-2-(5-methylisoxazol-3-yl) but-3-yn-2-ol], the Ki in test [1] was found to be 0.42 nM. Further, the IC50 in test [4] was found to be 313 nM.
As to `CC(O)(C#Cc1cc2c(cc1F)ncn2-c1ccnc(N)n1)c1nccs1` (centres unmarked) [Example T1-39, 4-(1-(2-aminopyrimidin-4-yl)-5-fluoro-1H-benzo[d]imidazol-6-yl)-2-(thiazol-2-yl)but-3-yn-2-ol], in test [1], the Ki was determined as 0.25 nM. The IC50 in test [2] turned out to be 31.1 nM; in test [3], 220 nM; in test [4] it was 194 nM.
For the compound `CN(C)Cc1nn(-c2ccnc(N)n2)c2cc(C#CC(C)(O)c3ncco3)ccc12` (centres unmarked) [Example T1-32, 4-(1-(2-aminopyrimidin-4-yl)-3-((dimethylamino)methyl)-1H-indazol-6-yl)-2-(oxazol-2-yl)but-3-yn-2-ol], the Ki in test [1] is 1.3 nM. The IC50 in test [2] was determined as 589 nM; in test [4], 72.7 nM.
For the compound `CC(O)(C#Cc1ccc2c(CN3CCOCC3)nn(-c3ccnc(N)n3)c2c1)c1nccs1` (centres unmarked) [Example T1-18, 4-(1-(2-aminopyrimidin-4-yl)-3-(morpholinomethyl)-1H-indazol-6-yl)-2-(thiazol-2-yl) but-3-yn-2-ol], in test [1], the Ki was found to be 1.7 nM. The IC50 in test [2] is 142 nM; in test [3] it was 59 nM; in test [4], 518 nM.
Turning to `CC(O)(C#Cc1ccc2[nH]c(=O)n(-c3ccnc(N)n3)c2c1)c1nccs1` (centres unmarked) [Example T1-21, 1-(2-aminopyrimidin-4-yl)-6-(3-hydroxy-3-(thiazol-2-yl)but-1-ynyl)-1H-benzo[d] imidazol-2(3H)-one], in test [1], the Ki turned out to be 0.3 nM. Moreover, the half-inhibitory concentration (IC50) in test [2] came to 59 nM; in test [4] it was 514 nM.
In the case of `CC(O)(C#Cc1ccc2cnn(-c3ccnc(N)n3)c2c1)c1ncco1` (centres unmarked) [Example T1-15, 4-(1-(2-aminopyrimidin-4-yl)-1H-indazol-6-yl)-2-(oxazol-2-yl)but-3-yn-2-ol], in test [1], the Ki is 0.32 nM. In addition, the results for the IC50 in test [2] and in test [4] were 36.1 nM and 77 nM, respectively.
Regarding `CN(C)C(=O)c1nn(-c2ccnc(N)n2)c2cc(C#CC(C)(O)c3ncco3)ccc12` (centres unmarked) [Example T1-43, 1-(2-aminopyrimidin-4-yl)-6-(3-hydroxy-3-(oxazol-2-yl)but-1-ynyl)-N,N-dimethyl-1H-indazole-3-carboxamide], in test [1], the Ki was 0.2 nM. The concentration for half-maximal inhibition (IC50) in test [2] is 51 nM; in test [4], 346 nM.
Regarding `Cc1nn(-c2ccnc(N)n2)c2cc(C#C[C@@](C)(O)c3nccs3)ccc12` (stereo in doubt) [Example T1-42, 4-(1-(2-aminopyrimidin-4-yl)-3-methyl-1H-indazol-6-yl)-2-(thiazol-2-yl)but-3-yn-2-ol], the Ki in test [1] was 0.14 nM. Also, the figures for the IC50 in test [2] and in test [4] were 14.2 nM and 220 nM, respectively.
